# Results published in patent US20250024870A1, “NATURAL SUGAR-FREE SYRUP, AND PRODUCTION METHOD THEREOF” (CJ CHEILJEDANG CORPORATION, priority 2021, published 2025).
# Experiments:
# Format in all cases: cell-based
# [1] = tested on: General bacteria (T.A.B), bacteria derived from flavor syrup; assay: Minimum inhibitory concentration (MIC), paper disc diffusion method, general bacteria; conditions: legend not given
# Method: (§1) [table] The minimum inhibitory concentration (MIC) was conducted to confirm the antibacterial activity of each antibacterial agent and the minimum concentration showing antibacterial activity against the target strain, and the paper disc diffusion method was used as the experimental method. […] It was confirmed that if the bacteria had antibacterial activity, the proliferation of bacteria was inhibited as a clear zone was created around the paper.
# Spores (B. subtilis) [2] = assay: Minimum inhibitory concentration (MIC), paper disc diffusion method, spores; conditions: legend not given
# Method: as §1
# Fungi (Asp. niger) [3] = assay: Microbial challenge test (MCT) in sucrose-zero vanilla syrup, fungi; conditions: for fungi count: single concentration as printed in the row; for fungi count, Max.: Max. concentration of agent; for fungi count, Min.: Min. concentration of agent
# Method: (§2) Subsequently, the microbial challenge test (MCT) was conducted in the following order. The experiment was applied to the vanilla syrup, which is the representative among the sucrose syrup, the vanilla syrup, and the red grapefruit syrup, and the applied strains and analysis conditions are shown in Table 14.
# (§3) The microbial challenge test (MCT) experiment conditions are as follows: 1) prepare a sucrose-zero vanilla syrup; 2) prepare general bacteria/fungi/spores that have completed proliferation; 3) inject 10^3 cfu/ml of bacteria into a sterilized glass container (100 ml); 4) fill 3) with sucrose-zero vanilla syrup at the filling temperature (80° C. or higher); 5) let it stand after cooling; 6) one day after the cooling of the stationary sample was completed, culture was performed on a weekly basis; and 7) verify the trend of bacterial proliferation or decline for each natural antibacterial agent for 4 weeks.
# Fungi (Asp. niger) [4] = assay: Minimum inhibitory concentration (MIC), paper disc diffusion method, fungi; conditions: legend not given
# Method: as §1
# Spores (B. subtilis) [5] = assay: Microbial challenge test (MCT) in sucrose-zero vanilla syrup, spores; conditions: for spores count: single concentration as printed in the row; for spores count, Max.: Max. concentration of agent; for spores count, Min.: Min. concentration of agent
# Method: as §2, §3
# [6] = tested on: General bacteria, bacteria derived from flavor syrup; assay: Microbial challenge test (MCT) in sucrose-zero vanilla syrup, general bacteria; conditions: for general bacteria count: single concentration as printed in the row; for general bacteria count, Max.: Max. concentration of agent; for general bacteria count, Min.: Min. concentration of agent
# Method: as §2, §3
# [7] = immediately after inoculation of target bacteria
compound,measurement,setting,value
"C/C=C/C=C/C(=O)[O-].[K+] [Potassium sorbate, reference compound]","Antibacterial activity (clear zone), general bacteria (T.A.B)",[1]; 300 ppm,∘
same,"Antibacterial activity (clear zone), general bacteria (T.A.B)",[1]; 400 ppm,∘
same,"Antibacterial activity (clear zone), general bacteria (T.A.B)",[1]; 500 ppm,∘
same,"Antibacterial activity (clear zone), general bacteria (T.A.B)","[1]; 1,000 ppm",∘
same,"Antibacterial activity (clear zone), spores",Spores (B. subtilis) [2]; 300 ppm,∘
same,"Antibacterial activity (clear zone), spores",Spores (B. subtilis) [2]; 400 ppm,∘
same,"Antibacterial activity (clear zone), spores",Spores (B. subtilis) [2]; 500 ppm,∘
same,"Antibacterial activity (clear zone), spores","Spores (B. subtilis) [2]; 1,000 ppm",∘
same,fungi count,Fungi (Asp. niger) [3]; after 1 week,63
same,fungi count,Fungi (Asp. niger) [3]; after 2 weeks,66
same,fungi count,Fungi (Asp. niger) [3]; after 3 weeks,60
same,fungi count,Fungi (Asp. niger) [3]; after 4 weeks,58
same,fungi count,Fungi (Asp. niger) [3]; [7],68
same,"Antibacterial activity (clear zone), fungi",Fungi (Asp. niger) [4]; 300 ppm,∘
same,"Antibacterial activity (clear zone), fungi",Fungi (Asp. niger) [4]; 400 ppm,∘
same,"Antibacterial activity (clear zone), fungi",Fungi (Asp. niger) [4]; 500 ppm,∘
same,"Antibacterial activity (clear zone), fungi","Fungi (Asp. niger) [4]; 1,000 ppm",∘
same,spores count,Spores (B. subtilis) [5]; after 1 week,873
same,spores count,Spores (B. subtilis) [5]; after 2 weeks,876
same,spores count,Spores (B. subtilis) [5]; after 3 weeks,850
same,spores count,Spores (B. subtilis) [5]; after 4 weeks,860
same,spores count,Spores (B. subtilis) [5]; [7],880
same,general bacteria count,[6]; after 1 week,93
same,general bacteria count,[6]; after 2 weeks,83
same,general bacteria count,[6]; after 3 weeks,80
same,general bacteria count,[6]; after 4 weeks,78
same,general bacteria count,[6]; [7],98
E-polylisine [E-polylysine],"Antibacterial activity (clear zone), general bacteria (T.A.B)",[1]; 200 ppm,∘
same,"Antibacterial activity (clear zone), general bacteria (T.A.B)",[1]; 300 ppm,∘
same,"Antibacterial activity (clear zone), general bacteria (T.A.B)",[1]; 400 ppm,∘
same,"Antibacterial activity (clear zone), general bacteria (T.A.B)",[1]; 500 ppm,∘
same,"Antibacterial activity (clear zone), general bacteria (T.A.B)","[1]; 1,000 ppm",∘
same,"Antibacterial activity (clear zone), spores",Spores (B. subtilis) [2]; 400 ppm,∘
same,"Antibacterial activity (clear zone), spores",Spores (B. subtilis) [2]; 500 ppm,∘
same,"Antibacterial activity (clear zone), spores","Spores (B. subtilis) [2]; 1,000 ppm",∘
same,"fungi count, Max.",Fungi (Asp. niger) [3]; after 1 week,135
same,"fungi count, Min.",Fungi (Asp. niger) [3]; after 1 week,147
same,"fungi count, Max.",Fungi (Asp. niger) [3]; after 2 weeks,130
same,"fungi count, Min.",Fungi (Asp. niger) [3]; after 2 weeks,137
same,"fungi count, Max.",Fungi (Asp. niger) [3]; after 3 weeks,128
same,"fungi count, Min.",Fungi (Asp. niger) [3]; after 3 weeks,130
same,"fungi count, Max.",Fungi (Asp. niger) [3]; after 4 weeks,125
same,"fungi count, Min.",Fungi (Asp. niger) [3]; after 4 weeks,128
same,"fungi count, Max.",Fungi (Asp. niger) [3]; [7],138
same,"fungi count, Min.",Fungi (Asp. niger) [3]; [7],150
same,"Antibacterial activity (clear zone), fungi",Fungi (Asp. niger) [4]; 400 ppm,∘
same,"Antibacterial activity (clear zone), fungi",Fungi (Asp. niger) [4]; 500 ppm,∘
same,"Antibacterial activity (clear zone), fungi","Fungi (Asp. niger) [4]; 1,000 ppm",∘
same,"spores count, Max.",Spores (B. subtilis) [5]; after 1 week,720
same,"spores count, Min.",Spores (B. subtilis) [5]; after 1 week,870
same,"spores count, Max.",Spores (B. subtilis) [5]; after 2 weeks,773
same,"spores count, Min.",Spores (B. subtilis) [5]; after 2 weeks,850
same,"spores count, Max.",Spores (B. subtilis) [5]; after 3 weeks,780
same,"spores count, Min.",Spores (B. subtilis) [5]; after 3 weeks,800
same,"spores count, Max.",Spores (B. subtilis) [5]; after 4 weeks,720
same,"spores count, Min.",Spores (B. subtilis) [5]; after 4 weeks,830
same,"spores count, Max.",Spores (B. subtilis) [5]; [7],720
same,"spores count, Min.",Spores (B. subtilis) [5]; [7],880
same,"general bacteria count, Max.",[6]; after 1 week,126
same,"general bacteria count, Min.",[6]; after 1 week,129
same,"general bacteria count, Max.",[6]; after 2 weeks,115
same,"general bacteria count, Min.",[6]; after 2 weeks,120
same,"general bacteria count, Max.",[6]; after 3 weeks,110
same,"general bacteria count, Min.",[6]; after 3 weeks,120
same,"general bacteria count, Max.",[6]; after 4 weeks,108
same,"general bacteria count, Min.",[6]; after 4 weeks,110
same,"general bacteria count, Max.",[6]; [7],129
same,"general bacteria count, Min.",[6]; [7],132
